Results taken from BindingDB's records for doi:10.1021/np070341r (Leibniz-Institute For Natural Product Research and …, 2008).

Molecular target: Dual specificity tyrosine-phosphorylation-regulated kinase 1A (Homo sapiens, UniProt Q13627)
Test: Inhibition of human recombinant DYRK1A

IC50 [µM] | Structure (SMILES)
> 100 | COC(=O)[C@@]1(Cc2ccc(O)c(CC=C(C)C)c2)OC(=O)C(=O)C1c1ccc(O)cc1 (stereo partly drawn) [(S)-methyl 4-hydroxy-2-(4-hydroxy-3-(3-methylbut-2-enyl)benzyl)-3-(4-hydroxyphenyl)-5-oxo-2,5-dihydrofuran-2-carboxylate]
> 100 | COC(=O)[C@]1(Cc2ccc(OS(=O)(=O)O)c(CC=C(C)C)c2)OC(=O)C(=O)C1c1ccc(O)cc1 (some centres not stated) [butyrolactone I 4''-sulfate]
